According to BigSolDB 2.1:

CCCCCCCCCCCCCCCCCCCC(=O)OCCO
Settings	solubility (mole fraction)
in 1,1,1-trichloroethane, 296.75 K	0.0241
in 1,1,1-trichloroethane, 299.75 K	0.0469
in 1,1,1-trichloroethane, 303.75 K	0.0762
in 1,1,1-trichloroethane, 309.55 K	0.142
in MIBK, 294.65 K	0.0026
in MIBK, 298.05 K	0.0049
in MIBK, 299.25 K	0.008
in MIBK, 302.65 K	0.0176
in MIBK, 307.55 K	0.0486
in MIBK, 311.75 K	0.173
in cyclohexane, 296.35 K	0.003
in cyclohexane, 298.75 K	0.0044
in cyclohexane, 301.55 K	0.008
in cyclohexane, 303.25 K	0.0189
in cyclohexane, 305.65 K	0.0367
in cyclohexane, 307.25 K	0.069
in cyclohexane, 310.55 K	0.122
in ethanol, 311.25 K	0.0006
in ethanol, 314.65 K	0.0012
in ethanol, 319.15 K	0.002
in ethanol, 322.15 K	0.005
in ethanol, 324.15 K	0.0139
in isopropanol, 302.85 K	0.0002
in isopropanol, 304.05 K	0.0005
in isopropanol, 306.35 K	0.0008
in isopropanol, 309.85 K	0.001
in isopropanol, 310.65 K	0.0017
in isopropanol, 310.95 K	0.0026
in isopropanol, 313.15 K	0.0028
in isopropanol, 316.15 K	0.0062
in isopropanol, 318.15 K	0.0134
in isopropanol, 319.85 K	0.082
in isopropanol, 319.95 K	0.193
in n-butanol, 303.75 K	0.0006
in n-butanol, 303.95 K	0.001
in n-butanol, 306.55 K	0.0018
in n-butanol, 306.75 K	0.0019
in n-butanol, 307.95 K	0.0027
in n-butanol, 308.85 K	0.0039
in n-butanol, 310.85 K	0.0059
in n-butanol, 313.75 K	0.0122
in n-butanol, 315.75 K	0.0201
in n-butanol, 317.35 K	0.0783
in n-butanol, 317.45 K	0.151
in n-butyl acetate, 294.75 K	0.0036
in n-butyl acetate, 296.55 K	0.0065
in n-butyl acetate, 297.45 K	0.009
in n-butyl acetate, 299.85 K	0.0127
in n-butyl acetate, 301.05 K	0.0184
in n-butyl acetate, 303.45 K	0.0288
in n-butyl acetate, 307.35 K	0.0655
in n-butyl acetate, 312.35 K	0.147
in n-butyl acetate, 312.85 K	0.172
in n-butyl acetate, 313.35 K	0.185
in trichloroethylene, 297 K	0.0428
in trichloroethylene, 299.25 K	0.0575
in trichloroethylene, 304.25 K	0.104
in trichloroethylene, 307.7 K	0.15
in trichloroethylene, 311.3 K	0.216

CCCCCCCCCCCCCCCCCCCCCC(=O)OCCO
Settings	solubility (mole fraction)
in 1,1,1-trichloroethane, 287.55 K	0.0101
in 1,1,1-trichloroethane, 290.15 K	0.0146
in 1,1,1-trichloroethane, 293.65 K	0.0202
in 1,1,1-trichloroethane, 296.95 K	0.0313
in 1,1,1-trichloroethane, 299.45 K	0.043
in 1,1,1-trichloroethane, 302.35 K	0.0571
in 1,1,1-trichloroethane, 304.35 K	0.0718
in 1,1,1-trichloroethane, 305.75 K	0.0958
in 1,1,1-trichloroethane, 308.95 K	0.127
in 1,1,1-trichloroethane, 311.75 K	0.161
in 1,1,1-trichloroethane, 318.15 K	0.259
in cyclohexane, 295.95 K	0.0024
in cyclohexane, 300.05 K	0.0037
in cyclohexane, 304.75 K	0.0102
in cyclohexane, 307.15 K	0.0204
in cyclohexane, 308.95 K	0.041
in cyclohexane, 311.05 K	0.0766
in cyclohexane, 312.65 K	0.108
in ethanol, 296.35 K	0.0001
in ethanol, 302.05 K	0.0002
in ethanol, 305.35 K	0.0003
in ethanol, 311.65 K	0.0007
in ethanol, 313.05 K	0.0009
in ethanol, 322.45 K	0.0131
in isobutanol, 295.75 K	0.0001
in isobutanol, 300.35 K	0.0004
in isobutanol, 304.45 K	0.0018
in isobutanol, 304.55 K	0.0016
in isobutanol, 308.45 K	0.003
in isobutanol, 311.55 K	0.0082
in isopropanol, 305.15 K	0.0003
in isopropanol, 306.65 K	0.0006
in isopropanol, 313.15 K	0.0008
in isopropanol, 315.65 K	0.0015
in isopropanol, 319.65 K	0.0033
in isopropanol, 321.65 K	0.0058
in isopropanol, 325.65 K	0.0069
in isopropanol, 326.65 K	0.0241
in n-butanol, 295.85 K	0.0004
in n-butanol, 299.75 K	0.0006
in n-butanol, 304.25 K	0.001
in n-butanol, 307.25 K	0.0018
in n-butanol, 309.25 K	0.0036
in n-propanol, 296.55 K	0.0002
in n-propanol, 299.15 K	0.0003
in n-propanol, 302.85 K	0.0007
in n-propanol, 303.15 K	0.0008
in n-propanol, 306.05 K	0.0016
in n-propanol, 308.85 K	0.0033
in tetrachloroethylene, 297.25 K	0.0002
in tetrachloroethylene, 298.45 K	0.0003
in tetrachloroethylene, 301.95 K	0.0005
in tetrachloroethylene, 303.25 K	0.0008
in tetrachloroethylene, 309.75 K	0.0028
in trichloroethylene, 296.25 K	0.0089
in trichloroethylene, 301.35 K	0.0177
in trichloroethylene, 306.45 K	0.0406
in trichloroethylene, 310.85 K	0.0804
in trichloroethylene, 311.25 K	0.252

CCCCCCCCCCCCCCCCCC(=O)OCCO
Settings	solubility (mole fraction)
in 1,1,1-trichloroethane, 287.65 K	0.0097
in 1,1,1-trichloroethane, 290.45 K	0.0147
in 1,1,1-trichloroethane, 293.65 K	0.0227
in 1,1,1-trichloroethane, 295.75 K	0.0339
in 1,1,1-trichloroethane, 298.55 K	0.0504
in 1,1,1-trichloroethane, 300.95 K	0.0723
in 1,1,1-trichloroethane, 304.25 K	0.108
in 1,1,1-trichloroethane, 307.75 K	0.164
in 1,1,1-trichloroethane, 311.65 K	0.239
in 1,1,1-trichloroethane, 314.45 K	0.348
in 1,1,2-trichlorotrifluoroethane, 290.45 K	0.0013
in 1,1,2-trichlorotrifluoroethane, 295.55 K	0.0029
in 1,1,2-trichlorotrifluoroethane, 303.45 K	0.0077
in 1,1,2-trichlorotrifluoroethane, 303.65 K	0.0087
in 1,1,2-trichlorotrifluoroethane, 306.05 K	0.0124
in 1,1,2-trichlorotrifluoroethane, 308.05 K	0.0192
in 1,1,2-trichlorotrifluoroethane, 309.85 K	0.0307
in 1,1,2-trichlorotrifluoroethane, 311.45 K	0.049
in 1,1,2-trichlorotrifluoroethane, 312.65 K	0.0769
in 1,1,2-trichlorotrifluoroethane, 314.15 K	0.128
in 1,1,2-trichlorotrifluoroethane, 316.75 K	0.276
in cyclohexane, 282.05 K	0.0007
in cyclohexane, 288.35 K	0.0015
in cyclohexane, 294.65 K	0.0033
in cyclohexane, 298.15 K	0.0067
in cyclohexane, 299.15 K	0.0088
in cyclohexane, 300.25 K	0.0128
in cyclohexane, 300.85 K	0.0135
in cyclohexane, 302.25 K	0.0199
in cyclohexane, 303.85 K	0.314
in cyclohexane, 305.45 K	0.0499
in cyclohexane, 307.15 K	0.0774
in cyclohexane, 309.35 K	0.129
in cyclohexane, 312.46 K	0.208
in cyclohexane, 315.56 K	0.303
in ethyl acetate, 297.45 K	0.0118
in ethyl acetate, 298.35 K	0.016
in ethyl acetate, 299.15 K	0.0204
in ethyl acetate, 299.75 K	0.0248
in ethyl acetate, 300.95 K	0.0332
in ethyl acetate, 302.15 K	0.0433
in ethyl acetate, 305.05 K	0.065
in ethyl acetate, 306.05 K	0.0868
in ethyl acetate, 308.75 K	0.125
in ethyl acetate, 312.75 K	0.233
in n-butyl acetate, 294.45 K	0.0094
in n-butyl acetate, 295.35 K	0.0174
in n-butyl acetate, 297.45 K	0.0304
in n-butyl acetate, 298.65 K	0.0507
in n-butyl acetate, 302.65 K	0.0761
in n-butyl acetate, 306.75 K	0.129
in n-butyl acetate, 313.15 K	0.267
in n-hexyl acetate, 293.95 K	0.0267
in n-hexyl acetate, 299.35 K	0.0423
in n-hexyl acetate, 302.35 K	0.0633
in n-hexyl acetate, 305.95 K	0.0919
in n-hexyl acetate, 308.15 K	0.128
in n-hexyl acetate, 309.75 K	0.158
in n-hexyl acetate, 311.65 K	0.202
in n-hexyl acetate, 313.73 K	0.256
in n-hexyl acetate, 317.15 K	0.339
in n-hexyl acetate, 320.05 K	0.464
in n-hexyl acetate, 332.85 K	0.631
in n-pentyl acetate, 294.95 K	0.0324
in n-pentyl acetate, 298.95 K	0.0453
in n-pentyl acetate, 300.85 K	0.168
in n-pentyl acetate, 301.75 K	0.0655
in n-pentyl acetate, 303.75 K	0.0897
in n-pentyl acetate, 305.75 K	0.121
in n-pentyl acetate, 311.95 K	0.232
in n-pentyl acetate, 314.95 K	0.316
in n-pentyl acetate, 318.45 K	0.447
in n-pentyl acetate, 322.85 K	0.657
in n-propyl acetate, 297.75 K	0.0357
in n-propyl acetate, 299.95 K	0.0493
in n-propyl acetate, 302.15 K	0.0655
in n-propyl acetate, 304.35 K	0.0992
in n-propyl acetate, 306.45 K	0.137
in n-propyl acetate, 308.75 K	0.174
in n-propyl acetate, 311.85 K	0.228
in n-propyl acetate, 314.95 K	0.315
in n-propyl acetate, 317.85 K	0.405
in n-propyl acetate, 322.15 K	0.566
